Like-named read-outs stand apart in the source and are kept apart here.
Legend:
[1] = system: homologous PCA (passive cutaneous anaphlaxis) of rats; assay: Homologous PCA (passive cutaneous anaphylaxis) test of rats for 48 hours, oral (antiallergic activity); assay type: in vivo, Wistar male rats; details: for minimal effective dose / responders at 0.001 mg/kg / responders at 0.01 mg/kg / responders at 0.1 mg/kg / responders at 1 mg/kg / responders at 10 mg/kg / responders at 100 mg/kg: Rattus norvegicus; for minimal effective dose: read-out: MED (minimum effective dosage), PCA inhibition; for responders at 0.001 mg/kg / responders at 0.01 mg/kg / responders at 0.1 mg/kg / responders at 1 mg/kg / responders at 10 mg/kg / responders at 100 mg/kg: po; for responders at 0.001 mg/kg: dosage 0.001 mg/kg, read-out: Number of positive zooids in one group of 3 zooids; for responders at 0.001 mg/kg / responders at 0.01 mg/kg / responders at 0.1 mg/kg / responders at 1 mg/kg / responders at 10 mg/kg / responders at 100 mg/kg / Number of positive zooids in one group of 3 zooids: positive = inhibition rate 50% or higher; for responders at 0.01 mg/kg: dosage 0.01 mg/kg; for responders at 0.01 mg/kg / responders at 0.1 mg/kg / responders at 1 mg/kg / responders at 10 mg/kg / responders at 100 mg/kg: read-out: Number of positive zooids in one group of 3 zooids (converted); for responders at 10 mg/kg: dosage 10 mg/kg; for responders at 100 mg/kg: dosage 100 mg/kg
Method: Antiallergic activity was investigated by a homologous PCA (passive cutaneous anaphlaxis) of rats for 48 hours, where Wistar male rats having body weights of 180 to 220 g were used for sampling of antiserum and Wistar male rats having body weights of 120 to 140 g were used for the PCA test.
Anti-egg white albumin (EWA) rat serum was prepared according to Stotland and Share's method [Canad. J. Physiol. Pharmacol. 52, 1114 (1974)]. That is, 1 mg of EWA was mixed with 20 mg of aluminum hydroxide gel and 0.5 ml of mixed vaccine of pertussis, diphtheria and tetanus, and the mixture was subcutaneously administered in four portions into rat's footpad. After 14 days, blood was sampled from the carotid artery, and the serum was separated from the sampled blood, and preserved under freezing at -80° C. The potency of the antiserumin in the homologous PCA for 48 hours was 1:32.
Groups each consisting of 3 rats were used, and 0.05 ml of anti-EWA rat serum diluted with a physiological saline solution to 8 times as much was incutaneously injected each at two positions of depilated back to make the animals passively sensitised. After 47 hours, the compound of the present invention, or its solution (physiological saline solution or CMC solution) was orally administered. One hour thereafter, 0.5 ml/100 g of 1% Evan's blue physiological saline solution containing 2 mg of the antigen EWA was administered into the tail vein, and 30 minutes thereafter, the animals were sacrificed by exsanguination. Then, the skins were stripped and the amount of leaked pigment at the blue-dyed parts was measured according to the Katayama et al method [Microbiol. Immunol. 22, 89 (1978)]. That is, the blue-dyed parts were cut out by scissors, and placed in test tubes containing 1 ml of 1N KOH and incubated at 37° C. for 24 hours. Then, 9 ml of a mixture of 0.6N phosphoric acid and acetone (5:13) was added thereto, and the mixture was shaked and centrifuged at 2,500 rpm for 10 minutes. Absorbancy of the supernatant at […] was measured, and the amount of leaked pigment was quantitatively determined by the calibration curve prepared in advance. An average of measurements at the two position was made a value for one zooid, and inhibition rate for the individual zooid was calculated by the following formula: [formula]

dd, male mice = assay type: in vivo
Method: Groups each consisting of 3 dd, male mice having body weights of 20±1 g were used, and the compound of the present invention was administered orally (po: 300 mg/kg) or intraperitoneally (ip: 100 mg/kg).

Rat carageenin paw edema = assay: Carageenin paw edema test (antiinflammatory activity); assay type: in vivo, Wistar male rats; details: average value in one group of 3 rats, 100 mg/kg oral administration
Method: Antiinflammatory activity was examined according to Rat carageenin paw edema [J. Pathol. 104, 15-29 (1971)], Groups each consisting of three Wistar male rats weighing 150 g were used. The test compound was suspended in 0.3% aqueous CMC solution and the suspension was given orally. Sixty minutes later, 0.1 ml of 0.1% carageenin was subcutaneously injected in a hind paw to form carageenin paw edema.
The volume of paw was measured before the administration and 3 hours after the administration of carageenin with plethysmometer.
The ratio of the volume 3 hours after the administration to that before the administration of carageenin was calculated and each ratio is compared with the ratio of control group (0.3% CMC was administered) to give the edema inhibiting percentage.

[2] = minimum dosage with positive case in at least one of three rats
[3] = mice, mortality 7 days after administration

Compound	minimal effective dose [1, 2]	responders at 0.001 mg/kg [1]	responders at 0.01 mg/kg [1]	responders at 0.1 mg/kg ([1]; dosage 0.1 mg/kg)	responders at 1 mg/kg ([1]; dosage 1 mg/kg)	responders at 10 mg/kg [1]	responders at 100 mg/kg [1]	Acute toxicity (MLD), ip (dd, male mice; [3])	Acute toxicity (MLD), po (dd, male mice; [3])	Number of positive zooids in one group of 3 zooids ([1]; dosage 0.1 mg/kg)	Number of positive zooids in one group of 3 zooids ([1]; dosage 1 mg/kg)	MED (minimum effective dosage), PCA inhibition [1, 2]	Number of positive zooids in one group of 3 zooids ([1]; dosage 0.1 mg/kg, listed as 31')	Number of positive zooids in one group of 3 zooids ([1]; dosage 1 mg/kg, listed as 31')	Acute toxicity (MLD), ip (dd, male mice; mouse, in vivo, 10080 min)	Acute toxicity (MLD), po (dd, male mice; mouse, in vivo, 10080 min)	Carageenin paw edema inhibiting percentage (Rat carageenin paw edema)
CN(C)CCC=C1c2ccccc2COc2ccc(CCC(=O)O)cc21 [Compound 28, 3-[11-(3-Dimethylaminopropylidene)-6,11-dihydrodibenz[b,e]oxepin-2-yl]-propionic acid]	0.01 mg/kg	0%	66.7%	66.7%	100%	100%	100%	> 100 mg/kg	> 300 mg/kg	–	–	–	–	–	–	–	–
CN(C)CC/C=C1/c2ccccc2COc2ccc(CCO)cc21 [Compound 31 (cis), Cis-11-(3-dimethylaminopropylidene)-2-(2-hydroxyethyl)-6,11-dihydrodibenz[b,e]oxepin]	0.1 mg/kg	0%	0%	66.7%	100%	100%	–	> 100 mg/kg	300 mg/kg	–	–	–	–	–	–	–	–
CN(C)CC/C=C1\c2ccccc2COc2ccc(CCO)cc21 [Compound 31 (trans), Trans-11-(3-dimethylaminopropylidene)-2-(2-hydroxyethyl)-6,11-dihydrodibenz[b,e]oxepin]	–	–	–	–	–	–	–	> 100 mg/kg	> 300 mg/kg	3/3	2/3	0.1 mg/kg	–	–	–	–	–
CN(C)CC/C=C1\c2ccccc2COc2ccc(CCO)cc21 [Compound 31, 11-(3-Dimethylaminopropylidene)-2-(2-hydroxyethyl)-6,11-dihydrodibenz[b,e]oxepin]	0.1 mg/kg	–	0%	–	–	100%	100%	–	–	–	–	–	1/3	3/3	> 100 mg/kg	> 300 mg/kg	–
CCN(CC)CCN=C1c2ccccc2COc2ccc(C(=O)O)cc21 [Compound 35, 11-(2-Diethylaminoethyl)imino-6,11-dihydrodibenz[b,e]oxepin-2-carboxylic acid]	10 mg/kg	–	–	–	0%	33.3%	100%	> 100 mg/kg	> 300 mg/kg	–	–	–	–	–	–	–	–
CN(C)CCN=C1c2ccccc2COc2ccc(CC(=O)O)cc21 [Compound 37, 11-(2-Dimethylaminoethyl)imino-6,11-dihydrodibenz[b,e]oxepin-2-acetic acid]	10 mg/kg	–	–	–	0%	100%	100%	> 100 mg/kg	> 300 mg/kg	–	–	–	–	–	–	–	51.6%
CCN(CC)CCN=C1c2ccccc2COc2ccc(CC(=O)O)cc21 [Compound 39, 11-(2-Diethylaminoethyl)imino-6,11-dihydrodibenz[b,e]oxepin-2-acetic acid]	1 mg/kg	–	–	0%	100%	66.7%	100%	> 100 mg/kg	> 300 mg/kg	–	–	–	–	–	–	–	50.2%
CN(C)CCCN=C1c2ccccc2COc2ccc(CC(=O)O)cc21 [Compound 41, 11-(3-Dimethylaminopropyl)imino-6,11-dihydrodibenz[b,e]oxepin-2-acetic acid]	1 mg/kg	–	–	0%	33.3%	66.7%	100%	> 100 mg/kg	> 300 mg/kg	–	–	–	–	–	–	–	38.7%
CCN(CC)CCN=C1c2ccccc2COc2ccc(CCC(=O)O)cc21 [Compound 43, 3-[11-(2-Diethylaminoethyl)imino-6,11-dihydrodibenz[b,e]oxepin-2-yl]-propionic acid]	10 mg/kg	–	–	0%	0%	66.7%	100%	> 100 mg/kg	> 300 mg/kg	–	–	–	–	–	–	–	–
CC(C(=O)O)c1ccc2c(c1)C(=NCCN(C)C)c1ccccc1CO2 (stereo not drawn) [Compound 45, 2-[11-(2-Dimethylaminoethyl)imino-6,11-dihydrodibenz[b,e]oxepin-2-yl]-propionic acid]	1 mg/kg	–	–	0%	66.7%	100%	100%	> 100 mg/kg	> 300 mg/kg	–	–	–	–	–	–	–	63.1%
CN(C)CCN=C1c2ccccc2COc2cc(CC(=O)O)ccc21 [Compound 47, 11-(2-Dimethylaminoethyl)imino-6,11-dihydrodibenz[b,e]oxepin-3-acetic acid]	–	–	–	–	–	–	–	–	–	–	–	–	–	–	–	–	46.0%
CN(C)CCCN=C1c2ccccc2COc2cc(CC(=O)O)ccc21 [Compound 49, 11-(3-Dimethylaminopropyl)imino-6,11-dihydrodibenz[b,e]oxepin-3-acetic acid]	–	–	–	–	–	–	–	–	–	–	–	–	–	–	–	–	24.1%
O=C(O)c1ccc2c(c1)C(=CCCN1CCOCC1)c1ccccc1CO2 [Compound 56, 11-(3-Morpholinopropylidene)-6,11-dihydrodibenz[b,e]-oxepin-2-carboxylic acid]	0.1 mg/kg	–	0%	33.3%	100%	100%	100%	> 100 mg/kg	> 300 mg/kg	–	–	–	–	–	–	–	–
O=C(O)c1ccc2c(c1)C(=CCCN1CCSCC1)c1ccccc1CO2 [Compound 58, 11-(3-Thiomorpholinopropylidene)-6,11-dihydrodibenz[b,e]oxepin-2-carboxylicacid]	1 mg/kg	–	–	0%	100%	100%	100%	> 100 mg/kg	> 300 mg/kg	–	–	–	–	–	–	–	–
CN(C)CC/C=C1/c2ccccc2COc2ccc(/C=C/C(=O)O)cc21 [Compound 60, Trans-3-[11-(3-dimethylaminopropylidene)-6,11-dihydrodibenz[b,e]oxepin-2-yl]-acrylic acid]	0.1 mg/kg	–	0%	33.3%	66.7%	100%	100%	> 100 mg/kg	> 300 mg/kg	–	–	–	–	–	–	–	–
